One assay has as its system MDA-MB-453 cells. The assay can be described thus: Pharmacodynamic evaluation in NOD SCID mouse model with subcutaneous xenograft tumor of MDA-MB-453 cells. It is filed as in vivo. The conditions noted are these: oral, twice a day. The procedure: Experimental Example 6: Pharmacodynamic Evaluation of the Compound According to the Present Invention in NOD SCID Mouse Model with Subcutaneous Xenograft Tumor of MDA-MB-453 Cells
MDA-MB-453 cell lines were cultured in Leibovitz's L-15 medium+10% fetal bovine serum+1% […] at 37° C. under 5% CO2, and passaged once a week. When the cell saturation was between 80% and 90%, and the required quantity was reached, the cells were collected, counted, and inoculated.
When the number of cells in the logarithmic growth phase reached the required amount for the experiment, the cells were collected, and centrifuged at 1000 rpm for 5 minutes to remove the supernatant. The cells were resuspended in the medium, and counted using a cell counter. Based on the counting results, the original solution was diluted to obtain cell suspension at a concentration of 1*10^8 cells/mL. The cell viability was 94.55%, P14 generation. The diluted cell suspension and matrix gel were diluted in a 1:1 ratio, and after mixing, placed on ice. a 1 mL sterile syringe was used to transfer the suspension. 0.2 mL of cell suspension was subcutaneously inoculated into the right axilla of each mouse. Each mouse was inoculated with 1*10^7 MDA-MB-453 cells.
After inoculation, the tumor growth state was observed daily. When the average volume reached about 157.14 mm^3, mice were randomly divided into groups based on tumor size and body weight for administration. The same dose of solvent was given to the control group. The day on which tumor cells were inoculated was defined as Day 0.
The health and mortality status of animals was daily monitored, including tumor growth, activity ability, diet, weight, eyes, hair, and other abnormal behaviors. Body weight was measured daily, while tumor volume was measured twice a week. The tumor volume was measured using a vernier caliper, and the formula is TV=0.5 a×b^2, wherein a is the long diameter of the tumor, and b is the short diameter of the tumor. After reaching the experimental endpoint, plasma samples were collected from each group at pre-determined time points for determining the plasma concentration. After euthanizing mice, tumors were collected, photographed, weighed, and frozen.
Relative tumor proliferation rate, T/C (%), refers to the percentage ratio of tumor volume or weight between the treatment group and the control group at a certain time point. The calculation formula is: T/C %=TRTV/CRTV×100%
wherein, TRTV: the average relative tumor volume (RTV) of the treatment group; CRTV: the average relative tumor volume of the control group; (RTV): RTV=Vt/V0, V0 is the tumor volume of the animal at the time of grouping, and Vt is the tumor volume of the animal after treatment. […]

A further assay has as its system MCF-10A cells. The assay can be described thus: Inhibitory effects on the proliferation of MCF-10A cells (CCK8). It is filed as cell-based. To be noted: Homo sapiens, 144 h, 6 days. The procedure, abridged: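 MCF-10A cells seeded at 500 cells/well, cultured 24 h, then exposed to 9-point 3-fold dilutions from 10 μM final for 6 days at 37° C., 5% CO2. Viability by CCK8, 2–3 h, OD450 read; IC50 reported.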

The target of assay [1] is PI3Kα[WT]/[E542K]/[E545K]/[H1047R]/PI3Kβ/γ/δ. The assay can be described thus: PI3K enzyme activity assay (ADP-Glo). Format: biochemical. The conditions noted are these: PI3K kinase reaction, isoform not given. As to the method: Experimental Example 1: PI3Kα[WT]/[E542K]/[E545K]/[H1047R]/PI3Kβ/γ/δ Enzyme Activity Assay
PI3Kα[WT], PI3Kα[E542K], PI3Kα[E545K], PI3Kα[H1047R], PI3Kβ, PI3Kγ and PI3Kδ kinase reaction was performed in 384-well plate (PerkinElmer, #6008280), with a reaction system of 4 μL. PI3Kα[WT] enzyme solution (Promega, #V1721) or PI3Kα[E542K] enzyme solution (CarnaBio, #11-413-20N) or PI3Kα[E545K] enzyme solution (CarnaBio, #11-414-20N) or PI3Kα[H1047R] enzyme solution (Promega, #V1741) or PI3Kβ enzyme solution (Promega, #V1751) or PI3Kγ enzyme solution (ThermoFisher, #PV4786) or PI3Kδ enzyme solution (ThermoFisher, #PV6451) were added to 384-well plate, and then gradiently diluted compounds were added (starting at a final concentration of 10 μM, 3-fold dilution, 10 doses), followed by adding PIP2: 3PS (Promega, #V1701) and ATP solution (Promega, #V915B) to the plate. After incubation at 25° C. for 1 h, ADP-Glo reagent buffer (Promega, #V9102) was added to each well. The plate was sealed and incubated at 25° C. for 40 min, and then 10 μL of ADP-Glo detection buffer (Promega, #V9102) was added to each well. After incubating at 25° C. for 40 min, the chemiluminescence value was read using an instrument.
The experimental results are shown in the ADP Glo IC50 column in Table 2.

A value given as a limit tells only on which side of the number the result lay.

What is called IC50 is the midpoint of a concentration-inhibition curve.

Take `C[C@@H](Nc1ccc(Cl)nc1C(=O)O)c1cc(F)cc2c(=O)n(C)c(-c3ccc(F)cn3)nc12` [Compound 74]: the entries for the “TGI % after administrating for 21 days” value in the assay with MDA-MB-453 cells (25 mg/kg) and with MDA-MB-453 cells (75 mg/kg) were 74% and 85%, respectively. In addition, the half-inhibitory concentration (IC50) is over 5000 nM in the assay on MCF-10A cells and under 1000 nM in assay [1].
For `Cc1cc([C@@H](C)Nc2ccc(Cl)nc2C(=O)O)c2nc(-c3ccc(F)cn3)n(C)c(=O)c2c1` [Compound 66, (R)-6-chloro-3-((1-(2-(5-fluoropyridin-2-yl)-3,6-dimethyl-4-oxo-3,4-dihydroquinazolin-8-yl)ethyl)amino)pyridinecarboxylic Acid] the same measures were 71%, 87%, over 5000 nM and under 1000 nM.

Source of the values: patent US20260015341A1, “PI3K INHIBITOR, PREPARATION METHOD THEREFOR, AND USE THEREOF” (HINOVA PHARMACEUTICALS INC., priority 2022, published 2026).
